{"source": "PubChem BioAssay AID1963967", "about": "(Molecular Pharmacology Branch, DTP, NCI, 2024)", "test_system": "855422-203-R-J1-PDC spheroids with HUVEC/MSC, viability", "test": "Anticancer human tumor 855422-203-R-J1-PDC patient-derived bladder carcinoma cell line growth inhibition [PI3K]", "conditions": "for IC50: curve of first compound; for viability, T/C: stronger effect = lower value", "how_it_was_run": "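Multi-cell spheroids combine tumor cells with HUVEC and human MSCs, treated with targeted agents alone or with inavolisib, alpelisib, duvelisib or copanlisib. Concentrations fall in half-log steps from at or near clinical Cmax, or from 10 microM where Cmax is unknown; viability read-out.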", "key": {"[1]": {"conditions": "second compound 0.00316 µM, first compound 0.0316 µM"}, "[2]": {"conditions": "second compound 0.00316 µM, first compound 0.1 µM"}, "[3]": {"conditions": "second compound 0.00316 µM, first compound 0.316 µM"}, "[4]": {"conditions": "second compound 0.00316 µM, first compound 1 µM"}, "[5]": {"conditions": "second compound 0.01 µM, first compound 0.0316 µM"}, "[6]": {"conditions": "second compound 0.01 µM, first compound 0.1 µM"}, "[7]": {"conditions": "second compound 0.01 µM, first compound 0.316 µM"}, "[8]": {"conditions": "second compound 0.01 µM, first compound 1 µM"}, "[9]": {"conditions": "second compound 0.0316 µM, first compound 0.0316 µM"}, "[10]": {"conditions": "second compound 0.0316 µM, first compound 0.1 µM"}, "[11]": {"conditions": "second compound 0.0316 µM, first compound 0.316 µM"}, "[12]": {"conditions": "second compound 0.0316 µM, first compound 1 µM"}, "[13]": {"conditions": "second compound 0.1 µM, first compound 0.0316 µM"}, "[14]": {"conditions": "second compound 0.1 µM, first compound 0.1 µM"}, "[15]": {"conditions": "second compound 0.1 µM, first compound 0.316 µM"}, "[16]": {"conditions": "second compound 0.1 µM, first compound 1 µM"}, "[17]": {"conditions": "second compound 0.316 µM, first compound 0.0316 µM"}, "[18]": {"conditions": "second compound 0.316 µM, first compound 0.1 µM"}, "[19]": {"conditions": "second compound 0.316 µM, first compound 0.316 µM"}, "[20]": {"conditions": "second compound 0.316 µM, first compound 1 µM"}, "[21]": {"conditions": "second compound 1 µM, first compound 0.0316 µM"}, "[22]": {"conditions": "second compound 1 µM, first compound 0.1 µM"}, "[23]": {"conditions": "second compound 1 µM, first compound 0.316 µM"}, "[24]": {"conditions": "second compound 1 µM, first compound 1 µM"}}, "data": [{"compound": "CCN1CCN(Cc2ccc(Nc3ncc(F)c(-c4cc(F)c5nc(C)n(C(C)C)c5c4)n3)nc2)CC1", "note": "+ CC(Nc1ccc2c(c1)OCCn1cc(N3C(=O)OCC3C(F)F)nc1-2)C(N)=O;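 also: agents incubated with spheroids for one week before read-out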;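 as to viability, T/C: 100% = DMSO vehicle-treated control wells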", "values": [{"measurement": "IC50", "setting": "second compound 0.00316 µM", "result": "> 1000", "unit": "nM"}, {"measurement": "IC50", "setting": "second compound 0.01 µM", "result": 791, "unit": "nM"}, {"measurement": "IC50", "setting": "second compound 0.0316 µM", "result": 277, "unit": "nM"}, {"measurement": "IC50", "setting": "second compound 0.1 µM", "result": 70.7, "unit": "nM"}, {"measurement": "IC50", "setting": "second compound 0.316 µM", "result": 4.29, "unit": "nM"}, {"measurement": "IC50", "setting": "second compound 1 µM", "result": "< 3.16", "unit": "nM"}, {"measurement": "viability, T/C", "setting": "second compound 0.00316 µM, first compound 0.00316 µM", "result": 111, "unit": "%"}, {"measurement": "viability, T/C", "setting": "second compound 0.00316 µM, first compound 0.01 µM", "result": 74.3, "unit": "%"}, {"measurement": "viability, T/C", "setting": "[1]", "result": 103, "unit": "%"}, {"measurement": "viability, T/C", "setting": "[2]", "result": 74.1, "unit": "%"}, {"measurement": "viability, T/C", "setting": "[3]", "result": 66.2, "unit": "%"}, {"measurement": "viability, T/C", "setting": "[4]", "result": 56.5, "unit": "%"}, {"measurement": "viability, T/C", "setting": "second compound 0.01 µM, first compound 0.00316 µM", "result": 102, "unit": "%"}, {"measurement": "viability, T/C", "setting": "second compound 0.01 µM, first compound 0.01 µM", "result": 80, "unit": "%"}, {"measurement": "viability, T/C", "setting": "[5]", "result": 89.7, "unit": "%"}, {"measurement": "viability, T/C", "setting": "[6]", "result": 76, "unit": "%"}, {"measurement": "viability, T/C", "setting": "[7]", "result": 56.7, "unit": "%"}, {"measurement": "viability, T/C", "setting": "[8]", "result": 48.3, "unit": "%"}, {"measurement": "viability, T/C", "setting": "second compound 0.0316 µM, first compound 0.00316 µM", "result": 69.1, "unit": "%"}, {"measurement": "viability, T/C", "setting": "second compound 0.0316 µM, first compound 0.01 µM", "result": 78.3, "unit": "%"}, {"measurement": "viability, T/C", "setting": "[9]", "result": 78.3, "unit": "%"}, {"measurement": "viability, T/C", "setting": "[10]", "result": 61.7, "unit": "%"}, {"measurement": "viability, T/C", "setting": "[11]", "result": 49.7, "unit": "%"}, {"measurement": "viability, T/C", "setting": "[12]", "result": 35.4, "unit": "%"}, {"measurement": "viability, T/C", "setting": "second compound 0.1 µM, first compound 0.00316 µM", "result": 66, "unit": "%"}, {"measurement": "viability, T/C", "setting": "second compound 0.1 µM, first compound 0.01 µM", "result": 66.2, "unit": "%"}, {"measurement": "viability, T/C", "setting": "[13]", "result": 59.1, "unit": "%"}, {"measurement": "viability, T/C", "setting": "[14]", "result": 46.3, "unit": "%"}, {"measurement": "viability, T/C", "setting": "[15]", "result": 28.3, "unit": "%"}, {"measurement": "viability, T/C", "setting": "[16]", "result": 21, "unit": "%"}, {"measurement": "viability, T/C", "setting": "second compound 0.316 µM, first compound 0.00316 µM", "result": 46.5, "unit": "%"}, {"measurement": "viability, T/C", "setting": "second compound 0.316 µM, first compound 0.01 µM", "result": 52, "unit": "%"}, {"measurement": "viability, T/C", "setting": "[17]", "result": 43.1, "unit": "%"}, {"measurement": "viability, T/C", "setting": "[18]", "result": 24.4, "unit": "%"}, {"measurement": "viability, T/C", "setting": "[19]", "result": 16.4, "unit": "%"}, {"measurement": "viability, T/C", "setting": "[20]", "result": 16.1, "unit": "%"}, {"measurement": "viability, T/C", "setting": "second compound 1 µM, first compound 0.00316 µM", "result": 33, "unit": "%"}, {"measurement": "viability, T/C", "setting": "second compound 1 µM, first compound 0.01 µM", "result": 40.3, "unit": "%"}, {"measurement": "viability, T/C", "setting": "[21]", "result": 21.9, "unit": "%"}, {"measurement": "viability, T/C", "setting": "[22]", "result": 14.2, "unit": "%"}, {"measurement": "viability, T/C", "setting": "[23]", "result": 12.3, "unit": "%"}, {"measurement": "viability, T/C", "setting": "[24]", "result": 13.1, "unit": "%"}]}, {"compound": "CCCS(=O)(=O)Nc1ccc(F)c(C(=O)c2c[nH]c3ncc(-c4ccc(Cl)cc4)cc23)c1F", "note": "+ CC(Nc1ccc2c(c1)OCCn1cc(N3C(=O)OCC3C(F)F)nc1-2)C(N)=O", "values": [{"measurement": "IC50", "setting": "second compound 0.00316 µM", "result": 3280, "unit": "nM"}, {"measurement": "IC50", "setting": "second compound 0.01 µM", "result": 4550, "unit": "nM"}, {"measurement": "IC50", "setting": "second compound 0.0316 µM", "result": 4530, "unit": "nM"}, {"measurement": "IC50", "setting": "second compound 0.1 µM", "result": 3580, "unit": "nM"}, {"measurement": "IC50", "setting": "second compound 0.316 µM", "result": 981, "unit": "nM"}, {"measurement": "IC50", "setting": "second compound 1 µM", "result": "< 31.6", "unit": "nM"}, {"measurement": "viability, T/C", "setting": "[1]", "result": 110, "unit": "%"}, {"measurement": "viability, T/C", "setting": "[2]", "result": 89.8, "unit": "%"}, {"measurement": "viability, T/C", "setting": "[3]", "result": 104, "unit": "%"}, {"measurement": "viability, T/C", "setting": "[4]", "result": 76.1, "unit": "%"}, {"measurement": "viability, T/C", "setting": "second compound 0.00316 µM, first compound 3.16 µM", "result": 52.6, "unit": "%"}, {"measurement": "viability, T/C", "setting": "second compound 0.00316 µM, first compound 10 µM", "result": 0.17, "unit": "%"}, {"measurement": "viability, T/C", "setting": "[5]", "result": 99.2, "unit": "%"}, {"measurement": "viability, T/C", "setting": "[6]", "result": 85.2, "unit": "%"}, {"measurement": "viability, T/C", "setting": "[7]", "result": 91.8, "unit": "%"}, {"measurement": "viability, T/C", "setting": "[8]", "result": 78.5, "unit": "%"}, {"measurement": "viability, T/C", "setting": "second compound 0.01 µM, first compound 3.16 µM", "result": 75.8, "unit": "%"}, {"measurement": "viability, T/C", "setting": "second compound 0.01 µM, first compound 10 µM", "result": 0.24, "unit": "%"}, {"measurement": "viability, T/C", "setting": "[9]", "result": 92, "unit": "%"}, {"measurement": "viability, T/C", "setting": "[10]", "result": 79.9, "unit": "%"}, {"measurement": "viability, T/C", "setting": "[11]", "result": 98.7, "unit": "%"}, {"measurement": "viability, T/C", "setting": "[12]", "result": 87.8, "unit": "%"}, {"measurement": "viability, T/C", "setting": "second compound 0.0316 µM, first compound 3.16 µM", "result": 72.5, "unit": "%"}, {"measurement": "viability, T/C", "setting": "second compound 0.0316 µM, first compound 10 µM", "result": 0.18, "unit": "%"}, {"measurement": "viability, T/C", "setting": "[13]", "result": 77.2, "unit": "%"}, {"measurement": "viability, T/C", "setting": "[14]", "result": 82, "unit": "%"}, {"measurement": "viability, T/C", "setting": "[15]", "result": 74.4, "unit": "%"}, {"measurement": "viability, T/C", "setting": "[16]", "result": 72, "unit": "%"}, {"measurement": "viability, T/C", "setting": "second compound 0.1 µM, first compound 3.16 µM", "result": 56.7, "unit": "%"}, {"measurement": "viability, T/C", "setting": "second compound 0.1 µM, first compound 10 µM", "result": 0.28, "unit": "%"}, {"measurement": "viability, T/C", "setting": "[17]", "result": 58.9, "unit": "%"}, {"measurement": "viability, T/C", "setting": "[18]", "result": 53.3, "unit": "%"}, {"measurement": "viability, T/C", "setting": "[19]", "result": 54.9, "unit": "%"}, {"measurement": "viability, T/C", "setting": "[20]", "result": 48.9, "unit": "%"}, {"measurement": "viability, T/C", "setting": "second compound 0.316 µM, first compound 3.16 µM", "result": 37.1, "unit": "%"}, {"measurement": "viability, T/C", "setting": "second compound 0.316 µM, first compound 10 µM", "result": 0.2, "unit": "%"}, {"measurement": "viability, T/C", "setting": "[21]", "result": 36.7, "unit": "%"}, {"measurement": "viability, T/C", "setting": "[22]", "result": 36.5, "unit": "%"}, {"measurement": "viability, T/C", "setting": "[23]", "result": 34.2, "unit": "%"}, {"measurement": "viability, T/C", "setting": "[24]", "result": 34.8, "unit": "%"}, {"measurement": "viability, T/C", "setting": "second compound 1 µM, first compound 3.16 µM", "result": 24.1, "unit": "%"}, {"measurement": "viability, T/C", "setting": "second compound 1 µM, first compound 10 µM", "result": 0.31, "unit": "%"}]}]}
